Data: the supplement of paper PMC11061612

How the values were obtained:
Capivasertib = compound: C1CN(CCC1(C(=O)N[C@@H](CCO)C2=CC=C(C=C2)Cl)N)C3=NC=NC4=C3C=CN4 [Capivasertib]; conditions: max 10 µM
Outline: (§1)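 Following 24 hours at 37°C and 5% CO2, cancer cell lines in 1536-well plates with 7.5 μl DMEM/F12 or RPMI and 10% FBS were dosed for 72 hours, final DMSO typically being 0.2%. CellTiter-Glo 2.0 luminescence, scaled between blank-well and DMSO-well means, gave the viability readout. Dose responses were fitted to a two-parameter logistic curve with a non-linear mixed effects model, and the single-agent IC50 was derived from this fit.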

AZD1775 = compound: C=CCn1c(=O)c2cnc(Nc3ccc(N4CCN(C)CC4)cc3)nc2n1-c1cccc(C(C)(C)O)n1 [AZD1775]; conditions: max 3 µM
Outline: as §1

Trametinib = compound: CC(=O)Nc1cccc(-n2c(=O)n(C3CC3)c(=O)c3c(Nc4ccc(I)cc4F)n(C)c(=O)c(C)c32)c1 [Trametinib]; conditions: max 1 µM
Outline: as §1

Palbociclib = compound: CC(=O)c1c(C)c2cnc(Nc3ccc(N4CCNCC4)cn3)nc2n(C2CCCC2)c1=O [Palbociclib]; conditions: max 10 µM
Outline: as §1

AZD1390 = compound: CC(C)n1c(=O)n(C)c2cnc3cc(F)c(-c4ccc(OCCCN5CCCCC5)nc4)cc3c21 [AZD1390]; conditions: max 0.3 µM
Outline: as §1

Venetoclax = compound: CC1(C)CCC(CN2CCN(c3ccc(C(=O)NS(=O)(=O)c4ccc(NCC5CCOCC5)c([N+](=O)[O-])c4)c(Oc4cnc5[nH]ccc5c4)c3)CC2)=C(c2ccc(Cl)cc2)C1 [Venetoclax]; conditions: max 1 µM
Outline: as §1

Dasatinib = compound: CC1=C(C(=CC=C1)Cl)NC(=O)C2=CN=C(S2)NC3=CC(=NC(=N3)C)N4CCN(CC4)CCO [Dasatinib]; conditions: max 2 µM
Outline: as §1

SG3199 = compound: CC1=CN2[C@@H](C1)C=NC3=CC(=C(C=C3C2=O)OC)OCCCCCOC4=C(C=C5C(=C4)N=C[C@@H]6CC(=CN6C5=O)C)OC [SG3199]; conditions: max 0.001 µM
Outline: as §1

AZD2811 = compound: CCN(CCO)CCCOc1ccc2c(Nc3cc(CC(=O)Nc4cccc(F)c4)[nH]n3)ncnc2c1 [AZD2811]; conditions: max 1 µM
Outline: as §1

SN-38 = compound: CCc1c2c(nc3ccc(O)cc13)-c1cc3c(c(=O)n1C2)COC(=O)[C@]3(O)CC [SN-38]; conditions: max 0.3 µM
Outline: as §1

AZD0156 = compound: CN(C)CCCOc1ccc(-c2ccc3ncc4c(c3c2)n(C2CCOCC2)c(=O)n4C)cn1 [AZD0156]; conditions: max 3 µM
Outline: as §1

AZD4320 = compound: CN(CC[C@H](CSC1=CC=CC=C1)NC2=C(C=C(C=C2)S(=O)(=O)NC(=O)C3=CC=C(C=C3)N4CCC(CC4)[C@H](C5=CC=CC=C5C6=CC=C(C=C6)Cl)O)S(=O)(=O)C(F)(F)F)CCO [AZD4320]; conditions: max 1 µM
Outline: as §1

Alisertib = compound: COc1cc(Nc2ncc3c(n2)-c2ccc(Cl)cc2C(c2c(F)cccc2OC)=NC3)ccc1C(=O)O [Alisertib]; conditions: max 10 µM
Outline: as §1

Gefitinib = compound: COc1cc2ncnc(Nc3ccc(F)c(Cl)c3)c2cc1OCCCN1CCOCC1 [Gefitinib]; conditions: max 10 µM
Outline: as §1

Prexasertib = compound: COc1cccc(OCCCN)c1-c1cc(Nc2cnc(C#N)cn2)n[nH]1 [Prexasertib]; conditions: max 1 µM
Outline: as §1

Doxorubicin = compound: COc1cccc2c1C(=O)c1c(O)c3c(c(O)c1C2=O)C[C@@](O)(C(=O)CO)C[C@@H]3O[C@H]1C[C@H](N)[C@H](O)[C@H](C)O1 [Doxorubicin]; conditions: max 1 µM
Outline: as §1

AZD5153 = compound: COc1nnc2ccc(N3CCC(c4ccc(OCCN5CCN(C)C(=O)[C@H]5C)cc4)CC3)nn12 [AZD5153]; conditions: max 1 µM
Outline: as §1

Lapatinib = compound: CS(=O)(=O)CCNCc1ccc(-c2ccc3ncnc(Nc4ccc(OCc5cccc(F)c5)c(Cl)c4)c3c2)o1 [Lapatinib]; conditions: max 10 µM
Outline: as §1

AZD8186 = compound: C[C@@H](Nc1cc(F)cc(F)c1)c1cc(C(=O)N(C)C)cc2c(=O)cc(N3CCOCC3)oc12 [AZD8186]; conditions: max 3 µM
Outline: as §1

Crizotinib = compound: C[C@@H](Oc1cc(-c2cnn(C3CCNCC3)c2)cnc1N)c1c(Cl)ccc(F)c1Cl [Crizotinib]; conditions: max 10 µM
Outline: as §1

Savolitinib = compound: C[C@@H](c1ccc2nccn2c1)n1nnc2ncc(-c3cnn(C)c3)nc21 [Savolitinib]; conditions: max 1 µM
Outline: as §1

AZD6738 = compound: C[C@@H]1COCCN1C2=NC(=NC(=C2)C3(CC3)[S@](=N)(=O)C)C4=C5C=CNC5=NC=C4 [AZD6738]; conditions: max 10 µM
Outline: as §1

AZD5991 = compound: Cc1c2c(nn1C)CSCc1cc(n(C)n1)CSc1cc(c3ccccc3c1)OCCCc1c(C(=O)O)n(C)c3c-2c(Cl)ccc13 [AZD5991]; conditions: max 1 µM
Outline: as §1

AZD7648 = compound: Cc1cc2ncnn2cc1Nc1ncc2c(n1)n(C1CCOCC1)c(=O)n2C [AZD7648]; conditions: max 10 µM
Outline: as §1

Taselisib = compound: Cc1nc(-c2cn3c(n2)-c2ccc(-c4cnn(C(C)(C)C(N)=O)c4)cc2OCC3)n(C(C)C)n1 [Taselisib]; conditions: max 10 µM
Outline: as §1

Selumetinib = compound: Cn1cnc2c(F)c(Nc3ccc(Br)cc3Cl)c(C(=O)NOCCO)cc21 [Selumetinib]; conditions: max 10 µM
Outline: as §1

MK-2206 = compound: NC1(c2ccc(-c3nc4ccn5c(=O)[nH]nc5c4cc3-c3ccccc3)cc2)CCC1 [MK-2206]; conditions: max 10 µM
Outline: as §1

Olaparib = compound: O=C(c1cc(Cc2n[nH]c(=O)c3ccccc23)ccc1F)N1CCN(C(=O)C2CC2)CC1 [Olaparib]; conditions: max 10 µM
Outline: as §1

Cell Line	IC50, cell viability 72 h (Capivasertib) [µM]	IC50, cell viability 72 h (AZD1775) [µM]	IC50, cell viability 72 h (Trametinib) [µM]	IC50, cell viability 72 h (Palbociclib) [µM]	IC50, cell viability 72 h (AZD1390) [µM]	IC50, cell viability 72 h (Venetoclax) [µM]	IC50, cell viability 72 h (Dasatinib) [µM]	IC50, cell viability 72 h (SG3199) [µM]	IC50, cell viability 72 h (AZD2811) [µM]	IC50, cell viability 72 h (SN-38) [µM]	IC50, cell viability 72 h (AZD0156) [µM]	IC50, cell viability 72 h (AZD4320) [µM]	IC50, cell viability 72 h (Alisertib) [µM]	IC50, cell viability 72 h (Gefitinib) [µM]	IC50, cell viability 72 h (Prexasertib) [µM]	IC50, cell viability 72 h (Doxorubicin) [µM]	IC50, cell viability 72 h (AZD5153) [µM]	IC50, cell viability 72 h (Lapatinib) [µM]	IC50, cell viability 72 h (AZD8186) [µM]	IC50, cell viability 72 h (Crizotinib) [µM]	IC50, cell viability 72 h (Savolitinib) [µM]	IC50, cell viability 72 h (AZD6738) [µM]	IC50, cell viability 72 h (AZD5991) [µM]	IC50, cell viability 72 h (AZD7648) [µM]	IC50, cell viability 72 h (Taselisib) [µM]	IC50, cell viability 72 h (Selumetinib) [µM]	IC50, cell viability 72 h (MK-2206) [µM]	IC50, cell viability 72 h (Olaparib) [µM]
SBC-5 (Small Cell Lung Carcinoma)	> 10	1.14	> 1	> 10	> 0.3	> 1	> 2	> 0.001	> 1	0.0202	> 3	> 1	3.25	> 10	0.0795	> 1	0.507	> 10	> 3	7.27	> 1	5.87	> 1	> 10	4.64	> 10	> 10	> 10
SCC90 (Head and Neck Carcinoma)	2.3	> 3	0.00716	> 10	> 0.3	> 1	> 2	> 0.001	> 1	> 0.3	> 3	> 1	7.38	0.97	0.122	> 1	> 1	0.882	> 3	> 10	> 1	> 10	0.266	> 10	1.9	0.497	8.22	> 10
SK-N-DZ (Neuroblastoma)	> 10	0.278	> 1	5.33	> 0.3	> 1	> 2	> 0.001	> 1	0.0247	> 3	0.628	0.256	> 10	0.0169	0.748	0.294	5.56	> 3	1.86	> 1	2.39	> 1	> 10	> 10	> 10		> 10
SNU-1 (Gastric Carcinoma)	> 10	1.35	0.757	> 10	> 0.3	> 1	> 2	> 0.001	> 1	0.0129	> 3	> 1	> 10	> 10	0.0971	0.237	0.265	> 10	> 3	> 10	> 1	5.01	0.938	> 10	9.03	> 10		> 10
SUP-HD1 (Hodgkin's Lymphoma)	7.9	1.33	> 1	> 10	> 0.3	0.0156	> 2	> 0.001	0.995	0.00249	> 3	0.0126	5.4	> 10	0.0155	0.0996	0.224	> 10	> 3	6.54	> 1	4.04	0.516	> 10	5.27	> 10		> 10
TOV-21G (Ovarian Carcinoma)	1.55	0.754	> 1	> 10	> 0.3	> 1	0.139	> 0.001	> 1	0.148	> 3	> 1	2.95	> 10	0.299	> 1	0.334	> 10	> 3	9.3	> 1	3.65	> 1	> 10	6.23	> 10		> 10
